Laboratory results as given in PubChem BioAssay AID1259407 (Chemical Carcinogenesis Research Information System (CCRIS), 2018).
Activity calls are given as the source filed them. How the calls were made is not given here.

Test system: CCRIS mutagenicity, Ames/micronucleus/aberration tests
Test: CCRIS mutagenicity studies
Text: The CCRIS database contains chemical records with carcinogenicity, mutagenicity, tumor promotion, and tumor inhibition test results. It was developed by the National Cancer Institute (NCI). Data are derived from studies cited in primary journals, current awareness tools, NCI reports, and other sources. Test results have been reviewed by experts in carcinogenesis and mutagenesis.
CCRIS provides historical information from the years 1985 - 2011. It is no longer updated.
This is an archive assay for CCRIS mutagenicity studies.

Measured: mutagenic call

O=Cc1ccccc1
active: Test System: AMES SALMONELLA TYPHIMURIUM, Strain/Indicator: TA7005, Metabolic Activation: RAT LIVER S-9, AROCLOR 1254, Method: FLUCTUATION (MICROTITER) active; positive | Test System: MOUSE LYMPHOMA, Strain/Indicator: L5178Y (TK+/TK-), Metabolic Activation: NONE, Method: SUSPENSION/PLATE active; positive
inactive: End Point: IN VITRO CHROMOSOMAL ABERRATIONS, Test System: CHINESE HAMSTER OVARY CELLS, Metabolic Activation: NONE inactive; negative | End Point: IN VITRO CHROMOSOMAL ABERRATIONS, Test System: CHINESE HAMSTER OVARY CELLS, Metabolic Activation: RAT, LIVER, S-9, AROCLOR 1254 inactive; negative | End Point: In vitro chromosomal aberrations, Test System: Chinese hamster lung (CHL/IU) cells, Metabolic Activation: Rat, Liver, S9, Phenobarbital and 5,6-benzoflavone inactive; negative. weak positive response for ploidy is not dose related. | Test System: AMES SALMONELLA TYPHIMURIUM, Strain/Indicator: TA97, Metabolic Activation: NONE, Method: PREINCUBATION inactive; negative | Test System: AMES SALMONELLA TYPHIMURIUM, Strain/Indicator: TA97, Metabolic Activation: RAT, LIVER, S-9, AROCLOR 1254, Method: PREINCUBATION inactive; negative | Test System: AMES SALMONELLA TYPHIMURIUM, Strain/Indicator: TA98, Metabolic Activation: HAMSTER, LIVER, S-9, AROCLOR 1254 (10%), Method: PREINCUBATION inactive; negative | Test System: AMES SALMONELLA TYPHIMURIUM, Strain/Indicator: TA98, Metabolic Activation: NONE, Method: FLUCTUATION (MICROTITER) inactive; negative | Test System: AMES SALMONELLA TYPHIMURIUM, Strain/Indicator: TA98, Metabolic Activation: NONE, Method: PREINCUBATION inactive; negative | Test System: AMES SALMONELLA TYPHIMURIUM, Strain/Indicator: TA98, Metabolic Activation: RAT LIVER S-9, AROCLOR 1254, Method: FLUCTUATION (MICROTITER) inactive; negative | Test System: AMES SALMONELLA TYPHIMURIUM, Strain/Indicator: TA98, Metabolic Activation: RAT LIVER S-9, PHENOBARBITAL AND BETA-NAPHTHOFLAVONE, Method: PREINCUBATION inactive; negative | Test System: AMES SALMONELLA TYPHIMURIUM, Strain/Indicator: TA98, Metabolic Activation: RAT, LIVER, S-9, AROCLOR 1254 (10%), Method: PREINCUBATION inactive; negative | Test System: AMES SALMONELLA TYPHIMURIUM, Strain/Indicator: TA100, Metabolic Activation: HAMSTER, LIVER, S-9, AROCLOR 1254 (10%), Method: PREINCUBATION inactive; negative | Test System: AMES SALMONELLA TYPHIMURIUM, Strain/Indicator: TA100, Metabolic Activation: MOUSE, LIVER, S-9, AROCLOR 1254 (10%), Method: PREINCUBATION inactive; negative | Test System: AMES SALMONELLA TYPHIMURIUM, Strain/Indicator: TA100, Metabolic Activation: RAT LIVER S-9, AROCLOR 1254, Method: PREINCUBATION inactive; negative | Test System: AMES SALMONELLA TYPHIMURIUM, Strain/Indicator: TA100, Metabolic Activation: RAT LIVER S-9, PHENOBARBITAL AND BETA-NAPHTHOFLAVONE, Method: PREINCUBATION inactive; negative | Test System: AMES SALMONELLA TYPHIMURIUM, Strain/Indicator: TA100, Metabolic Activation: RAT, LIVER, S-9, AROCLOR 1254 (10%), Method: PREINCUBATION inactive; negative | Test System: AMES SALMONELLA TYPHIMURIUM, Strain/Indicator: TA102, Metabolic Activation: MOUSE, LIVER, S-9, AROCLOR 1254 (10%), Method: PREINCUBATION inactive; negative | Test System: AMES SALMONELLA TYPHIMURIUM, Strain/Indicator: TA102, Metabolic Activation: NONE, Method: PREINCUBATION inactive; negative | Test System: AMES SALMONELLA TYPHIMURIUM, Strain/Indicator: TA102, Metabolic Activation: RAT LIVER S-9, AROCLOR 1254, Method: PREINCUBATION inactive; negative | Test System: AMES SALMONELLA TYPHIMURIUM, Strain/Indicator: TA102, Metabolic Activation: RAT, LIVER, S-9, AROCLOR 1254 (10%), Method: PREINCUBATION inactive; negative | Test System: AMES SALMONELLA TYPHIMURIUM, Strain/Indicator: TA102, Metabolic Activation: RAT, LIVER, S-9, AROCLOR 1254, Method: PREINCUBATION inactive; negative | Test System: AMES SALMONELLA TYPHIMURIUM, Strain/Indicator: TA104, Metabolic Activation: MOUSE, LIVER, S-9, AROCLOR 1254 (10%), Method: PREINCUBATION inactive; negative | Test System: AMES SALMONELLA TYPHIMURIUM, Strain/Indicator: TA104, Metabolic Activation: NONE, Method: PREINCUBATION inactive; negative | Test System: AMES SALMONELLA TYPHIMURIUM, Strain/Indicator: TA104, Metabolic Activation: RAT LIVER S-9, AROCLOR 1254, Method: PREINCUBATION inactive; negative | Test System: AMES SALMONELLA TYPHIMURIUM, Strain/Indicator: TA104, Metabolic Activation: RAT, LIVER, S-9, AROCLOR 1254 (10%), Method: PREINCUBATION inactive; negative | Test System: AMES SALMONELLA TYPHIMURIUM, Strain/Indicator: TA1535, Metabolic Activation: HAMSTER, LIVER, S-9, AROCLOR 1254 (10%), Method: PREINCUBATION inactive; negative | Test System: AMES SALMONELLA TYPHIMURIUM, Strain/Indicator: TA1535, Metabolic Activation: NONE, Method: PREINCUBATION inactive; negative | Test System: AMES SALMONELLA TYPHIMURIUM, Strain/Indicator: TA1535, Metabolic Activation: RAT LIVER S-9, PHENOBARBITAL AND BETA-NAPHTHOFLAVONE, Method: PREINCUBATION inactive; negative | Test System: AMES SALMONELLA TYPHIMURIUM, Strain/Indicator: TA1535, Metabolic Activation: RAT, LIVER, S-9, AROCLOR 1254 (10%), Method: PREINCUBATION inactive; negative | Test System: AMES SALMONELLA TYPHIMURIUM, Strain/Indicator: TA1537, Metabolic Activation: HAMSTER, LIVER, S-9, AROCLOR 1254 (10%), Method: PREINCUBATION inactive; negative | Test System: AMES SALMONELLA TYPHIMURIUM, Strain/Indicator: TA1537, Metabolic Activation: NONE, Method: FLUCTUATION (MICROTITER) inactive; negative | Test System: AMES SALMONELLA TYPHIMURIUM, Strain/Indicator: TA1537, Metabolic Activation: NONE, Method: PREINCUBATION inactive; negative | Test System: AMES SALMONELLA TYPHIMURIUM, Strain/Indicator: TA1537, Metabolic Activation: RAT LIVER S-9, AROCLOR 1254, Method: FLUCTUATION (MICROTITER) inactive; negative | Test System: AMES SALMONELLA TYPHIMURIUM, Strain/Indicator: TA1537, Metabolic Activation: RAT LIVER S-9, PHENOBARBITAL AND BETA-NAPHTHOFLAVONE, Method: PREINCUBATION inactive; negative | Test System: AMES SALMONELLA TYPHIMURIUM, Strain/Indicator: TA1537, Metabolic Activation: RAT, LIVER, S-9, AROCLOR 1254 (10%), Method: PREINCUBATION inactive; negative | Test System: AMES SALMONELLA TYPHIMURIUM, Strain/Indicator: TA7001, Metabolic Activation: NONE, Method: FLUCTUATION (MICROTITER) inactive; negative | Test System: AMES SALMONELLA TYPHIMURIUM, Strain/Indicator: TA7001, Metabolic Activation: RAT LIVER S-9, AROCLOR 1254, Method: FLUCTUATION (MICROTITER) inactive; negative | Test System: AMES SALMONELLA TYPHIMURIUM, Strain/Indicator: TA7002, Metabolic Activation: NONE, Method: FLUCTUATION (MICROTITER) inactive; negative | Test System: AMES SALMONELLA TYPHIMURIUM, Strain/Indicator: TA7002, Metabolic Activation: RAT LIVER S-9, AROCLOR 1254, Method: FLUCTUATION (MICROTITER) inactive; negative | Test System: AMES SALMONELLA TYPHIMURIUM, Strain/Indicator: TA7003, Metabolic Activation: NONE, Method: FLUCTUATION (MICROTITER) inactive; negative | Test System: AMES SALMONELLA TYPHIMURIUM, Strain/Indicator: TA7003, Metabolic Activation: RAT LIVER S-9, AROCLOR 1254, Method: FLUCTUATION (MICROTITER) inactive; negative | Test System: AMES SALMONELLA TYPHIMURIUM, Strain/Indicator: TA7004, Metabolic Activation: NONE, Method: FLUCTUATION (MICROTITER) inactive; negative | Test System: AMES SALMONELLA TYPHIMURIUM, Strain/Indicator: TA7004, Metabolic Activation: RAT LIVER S-9, AROCLOR 1254, Method: FLUCTUATION (MICROTITER) inactive; negative | Test System: AMES SALMONELLA TYPHIMURIUM, Strain/Indicator: TA7005, Metabolic Activation: NONE, Method: FLUCTUATION (MICROTITER) inactive; negative | Test System: AMES SALMONELLA TYPHIMURIUM, Strain/Indicator: TA7006, Metabolic Activation: NONE, Method: FLUCTUATION (MICROTITER) inactive; negative | Test System: AMES SALMONELLA TYPHIMURIUM, Strain/Indicator: TA7006, Metabolic Activation: RAT LIVER S-9, AROCLOR 1254, Method: FLUCTUATION (MICROTITER) inactive; negative | Test System: E.COLI, Strain/Indicator: WP2UVRA/PKM101, Metabolic Activation: NONE, Method: PREINCUBATION inactive; negative | Test System: E.COLI, Strain/Indicator: WP2UVRA/PKM101, Metabolic Activation: RAT LIVER S-9, PHENOBARBITAL AND BETA-NAPHTHOFLAVONE, Method: PREINCUBATION inactive; negative
